Key:
Experiment in all cases: Test B pre-/postemergence plant response
Assay type in all cases: in vivo
[1] = system: cocklebur (Xanthium strumarium); conditions: for Plant response rating, Cocklebur: Postemergence
How it was run: (§1)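 Seeds were sown in loam soil/sand blend and treated preemergence with compound in non-phytotoxic solvent mixture containing surfactant; postemergence sprays, same formulation, went onto plants 2 to 18 cm (1- to 4-leaf stage) in peat-based planting medium. Greenhouse 13 to 15 days, then visual rating versus untreated controls, 0 (no effect) to 100 (complete control).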

[2] = system: soybean (Glycine max); conditions: for Plant response rating, Soybean: Postemergence
How it was run: as §1

[3] = system: downy bromegrass (Bromus tectorum); conditions: for Plant response rating, Bromegrass, Downy: Postemergence
How it was run: as §1

[4] = system: blackgrass (Alopecurus myosuroides); conditions: for Plant response rating, Blackgrass: Postemergence
How it was run: as §1

[5] = system: yellow nutsedge (Cyperus esculentus); conditions: for Plant response rating, Nutsedge, Yellow: Postemergence
How it was run: as §1

[6] = system: pigweed (Amaranthus retroflexus); conditions: for Plant response rating, Pigweed: Postemergence
How it was run: as §1

[7] = system: Surinam grass (Brachiaria decumbens); conditions: for Plant response rating, Surinam Grass: Postemergence
How it was run: as §1

[8] = system: large crabgrass (Digitaria sanguinalis); conditions: for Plant response rating, Crabgrass, Large: Postemergence
How it was run: as §1

[9] = system: ragweed (common ragweed, Ambrosia elatior); conditions: for Plant response rating, Ragweed: Postemergence
How it was run: as §1

[10] = system: kochia (Kochia scoparia); conditions: for Plant response rating, Kochia: Postemergence
How it was run: as §1

[11] = system: velvetleaf (Abutilon theophrasti); conditions: for Plant response rating, Velvetleaf: Postemergence
How it was run: as §1

[12] = system: corn (Zea mays); conditions: for Plant response rating, Corn: Postemergence
How it was run: as §1

[13] = system: wild oat (Avena fatua); conditions: for Plant response rating, Oat, Wild: Postemergence
How it was run: as §1

[14] = system: bermudagrass (Cynodon dactylon); conditions: for Plant response rating, Bermudagrass: Postemergence
How it was run: as §1

[15] = system: Italian ryegrass (Lolium multiflorum); conditions: for Plant response rating, Ryegrass, Italian: Postemergence
How it was run: as §1

[16] = system: green foxtail (Setaria viridis); conditions: for Plant response rating, Foxtail, Green: Postemergence
How it was run: as §1

[17] = system: lambsquarters (Chenopodium album); conditions: for Plant response rating, Lambsquarters: Postemergence
How it was run: as §1

[18] = 62 g ai/ha, postemergence, 0 is no effect, 100 is complete control, 13 to 15 days
[19] = 31 g ai/ha, 0 to 100 scale (0 no effect, 100 complete control)
[20] = 125 g ai/ha, scale 0 to 100 (0 no effect, 100 complete control)

With `CCn1c(-c2cc(F)cc(F)c2)ncc(C(=O)C2=C(O)CCCC2=O)c1=O` [Compound 122] the “Plant response rating, Cocklebur” value ([1]; 16 g ai/ha, 0 to 100 scale) was 0, the “Cocklebur plant response rating (0 to 100 scale)” value [1, 18] was 45 and the “Plant response rating, Cocklebur” value [1, 19] was 20. The “Plant response rating, Cocklebur” value [1, 20] was 85, the “Plant response rating, Soybean” value ([2]; 16 g ai/ha, 0 to 100 scale) was 20 and the “Soybean plant response rating (0 to 100 scale)” value [2, 18] was 75. The “Plant response rating, Soybean” value [2, 19] was 45, the “Plant response rating, Soybean” value [2, 20] was 80 and the “Plant response rating, Bromegrass, Downy” value ([3]; 16 g ai/ha, 0 to 100 scale) was 5. For the same molecule, the “Bromegrass, Downy plant response rating (0 to 100 scale)” value [3, 18] was 5, the “Plant response rating, Bromegrass, Downy” value [3, 19] was 5 and the “Plant response rating, Bromegrass, Downy” value [3, 20] was 50. The “Plant response rating, Blackgrass” value ([4]; 16 g ai/ha, 0 to 100 scale) was 0, the “Blackgrass plant response rating (0 to 100 scale)” value [4, 18] was 5 and the “Plant response rating, Blackgrass” value [4, 19] was 5. For the same molecule, the “Plant response rating, Blackgrass” value [4, 20] was 15, the “Plant response rating, Nutsedge, Yellow” value ([5]; 16 g ai/ha, 0 to 100 scale) was 35 and the “Nutsedge, Yellow plant response rating (0 to 100 scale)” value [5, 18] was 70. For the same molecule, the “Plant response rating, Nutsedge, Yellow” value [5, 19] was 55, the “Plant response rating, Nutsedge, Yellow” value [5, 20] was 75 and the “Plant response rating, Pigweed” value ([6]; 16 g ai/ha, 0 to 100 scale) was 75. The “Pigweed plant response rating (0 to 100 scale)” value [6, 18] was 90, the “Plant response rating, Pigweed” value [6, 19] was 85 and the “Plant response rating, Pigweed” value [6, 20] was 98. For the same molecule, the “Plant response rating, Surinam Grass” value ([7]; 16 g ai/ha, 0 to 100 scale) was 25, the “Surinam Grass plant response rating (0 to 100 scale)” value [7, 18] was 75 and the “Plant response rating, Surinam Grass” value [7, 19] was 75. For the same molecule, the “Plant response rating, Surinam Grass” value [7, 20] was 90, the “Plant response rating, Crabgrass, Large” value ([8]; 16 g ai/ha, 0 to 100 scale) was 65 and the “Crabgrass, Large plant response rating (0 to 100 scale)” value [8, 18] was 75. For the same molecule, the “Plant response rating, Crabgrass, Large” value [8, 19] was 75, the “Plant response rating, Crabgrass, Large” value [8, 20] was 85 and the “Plant response rating, Ragweed” value ([9]; 16 g ai/ha, 0 to 100 scale) was 55. For the same molecule, the “Ragweed plant response rating (0 to 100 scale)” value [9, 18] was 60, the “Plant response rating, Ragweed” value [9, 19] was 60 and the “Plant response rating, Ragweed” value [9, 20] was 75. For the same molecule, the “Plant response rating, Kochia” value ([10]; 16 g ai/ha, 0 to 100 scale) was 0, the “Kochia plant response rating (0 to 100 scale)” value [10, 18] was 0 and the “Plant response rating, Kochia” value [10, 19] was 0. For the same molecule, the “Plant response rating, Kochia” value [10, 20] was 45, the “Plant response rating, Velvetleaf” value ([11]; 16 g ai/ha, 0 to 100 scale) was 75 and the “Velvetleaf plant response rating (0 to 100 scale)” value [11, 18] was 90. For the same molecule, the “Plant response rating, Velvetleaf” value [11, 19] was 80, the “Plant response rating, Velvetleaf” value [11, 20] was 98 and the “Plant response rating, Corn” value ([12]; 16 g ai/ha, 0 to 100 scale) was 0. For the same molecule, the “Corn plant response rating (0 to 100 scale)” value [12, 18] was 15, the “Plant response rating, Corn” value [12, 19] was 0 and the “Plant response rating, Corn” value [12, 20] was 25. For the same molecule, the “Plant response rating, Oat, Wild” value ([13]; 16 g ai/ha, 0 to 100 scale) was 5, the “Oat, Wild plant response rating (0 to 100 scale)” value [13, 18] was 30 and the “Plant response rating, Oat, Wild” value [13, 19] was 5. The “Plant response rating, Oat, Wild” value [13, 20] was 35, the “Plant response rating, Bermudagrass” value ([14]; 16 g ai/ha, 0 to 100 scale) was 65 and the “Bermudagrass plant response rating (0 to 100 scale)” value [14, 18] was 80. For the same molecule, the “Plant response rating, Bermudagrass” value [14, 19] was 75, the “Plant response rating, Bermudagrass” value [14, 20] was 85 and the “Plant response rating, Ryegrass, Italian” value ([15]; 16 g ai/ha, 0 to 100 scale) was 5. The “Ryegrass, Italian plant response rating (0 to 100 scale)” value [15, 18] was 10, the “Plant response rating, Ryegrass, Italian” value [15, 19] was 5 and the “Plant response rating, Ryegrass, Italian” value [15, 20] was 40. The “Plant response rating, Foxtail, Green” value ([16]; 16 g ai/ha, 0 to 100 scale) was 40, the “Foxtail, Green plant response rating (0 to 100 scale)” value [16, 18] was 85 and the “Plant response rating, Foxtail, Green” value [16, 19] was 80. For the same molecule, the “Plant response rating, Foxtail, Green” value [16, 20] was 85, the “Plant response rating, Lambsquarters” value ([17]; 16 g ai/ha, 0 to 100 scale) was 55 and the “Lambsquarters plant response rating (0 to 100 scale)” value [17, 18] was 65. The “Plant response rating, Lambsquarters” value [17, 19] was 60 and the “Plant response rating, Lambsquarters” value [17, 20] was 90.
